From US11873291B2, “Quinoline cGAS antagonist compounds” (ImmuneSensor Therapeutics, Inc., priority 2020, dated 2024)

target: T1, recombinant human cGAS (aa147-522) (Homo sapiens, UniProt Q8N884); experiment: In vitro inhibition assay of cGAS activity (ATP consumption, KinaseGlo Max); format: biochemical; conditions: Table 2, read-out: cGAS Inhibition Results IC50
T1 construct: recombinant human cGAS (aa147-522); His6-SUMO (cleaved yes); made in house; host or cells: E. coli BL21/pLys
In short: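 De-tagged recombinant human cGAS (aa147-522, 1.5 μg/mL) was incubated 20 min at 37 °C with herring testis DNA, 6.6 μM ATP and 0.1 mM GTP in Tris pH 7.5/MgCl2 buffer plus serial compound dilutions. Remaining ATP was read by KinaseGlo Max luminescence, and IC50 was fitted from % ATP consumption versus log concentration.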

T1 sequence (Q8N884 147-522): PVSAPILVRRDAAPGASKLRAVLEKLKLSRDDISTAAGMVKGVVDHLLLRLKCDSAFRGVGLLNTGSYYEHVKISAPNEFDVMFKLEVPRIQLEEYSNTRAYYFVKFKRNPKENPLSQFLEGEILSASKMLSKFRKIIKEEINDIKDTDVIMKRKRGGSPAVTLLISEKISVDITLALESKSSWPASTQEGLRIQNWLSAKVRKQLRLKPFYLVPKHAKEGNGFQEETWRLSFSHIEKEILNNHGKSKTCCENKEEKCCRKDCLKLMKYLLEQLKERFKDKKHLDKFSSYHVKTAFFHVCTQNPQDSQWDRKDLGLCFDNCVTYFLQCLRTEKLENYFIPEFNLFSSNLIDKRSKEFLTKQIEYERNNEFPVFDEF

| SMILES | IC50 |
| --- | --- |
| NS(=O)(=O)CCNc1cc(NCC(=O)O)nc2c(Cl)c(Cl)ccc12 [I-319, (7,8-dichloro-4-((2-sulfamoylethyl)amino)quinolin-2-yl)glycine] | > 30000 nM |
| CN(CCNS(=O)(=O)c1ccccc1C(F)(F)F)c1cc(-n2ccnc2)c2ccc(Cl)cc2n1 [I-228] | > 30000 nM |
| Clc1ccc2c(-c3cn[nH]c3)cc(NCC3COCCN3)nc2c1Cl (stereo not drawn) [I-217] | > 30000 nM |
| Fc1ccc(Cc2cc(-n3ccnc3)c3ccc(Br)cc3n2)cc1 [I-275] | > 30000 nM |
| Cc1nccn1-c1ccnc2ccccc12 [I-411] | > 30000 nM |
| Oc1cc(OC(F)(F)F)cc(-c2cc(-n3ccnc3)c3ccc(Cl)c(Cl)c3n2)c1 [I-44] | > 30000 nM |
| NS(=O)(=O)CCNc1cc(-c2cn[nH]c2)c2c(Cl)c(Cl)ccc2n1 [I-261] | > 30000 nM |
| N#CCc1cn(-c2cc(-c3ccccc3)nc3cc(Cl)ccc23)cn1 [I-64] | > 30000 nM |
| COc1ccc2c(-n3ccnc3)ccnc2c1 [I-417] | > 30000 nM |
| O=C(O)CNc1cc(-c2cn[nH]c2)nc2cc(Cl)cc(Cl)c12 [I-300] | > 30000 nM |
| Clc1ccc2c(-c3cn[nH]c3)cc(N(CCN3CCOCC3)Cc3ccccc3)nc2c1Cl [I-216] | 2000 to 30000 nM |
| FC(F)(F)c1cc(-n2ccnc2)c2ccc(Cl)cc2n1 [I-422] | > 30000 nM |
| NS(=O)(=O)CCNc1cc(-c2cn[nH]c2)c2cc(C(F)(F)F)ccc2n1 [I-265] | > 30000 nM |

Next, values leading:

| IC50 | SMILES |
| --- | --- |
| < 2000 nM | O=C(O)C1(O)CCCN(c2cc(-n3ccnc3)c3ccc(Cl)c(Cl)c3n2)C1 (stereo not drawn) [I-124] |
| < 2000 nM | C[C@H](Nc1cc(-c2cn[nH]c2)nc2c(Cl)c(Cl)ccc12)C(=O)O [I-285] |
| 2000 to 30000 nM | OC1CCN(c2cc(-n3ccnc3)c3ccc(Cl)c(Cl)c3n2)CC1 [I-132] |
| < 2000 nM | CN1CCN(c2cc(-n3ccnc3)c3ccc(Cl)c(Cl)c3n2)CC1C(=O)O (stereo not drawn) [I-82, 4-(7,8-Dichloro-4-(1H-imidazol-1-yl)quinolin-2-yl)-1-methylpiperazine-2-carboxylic acid] |
| < 2000 nM | NS(=O)(=O)CCNc1cc(-c2cn[nH]c2)c2cc(Cl)c(Cl)cc2n1 [I-260] |
| 2000 to 30000 nM | O=C(O)CC1CCCN(c2cc(-n3ccnc3)c3ccc(Cl)cc3n2)C1 (stereo not drawn) [I-123, 2-(1-(7-chloro-4-(1H-imidazol-1-yl)quinolin-2-yl)piperidin-3-yl)acetic acid] |
| < 2000 nM | O=C(O)[C@H]1CN(c2cc(-c3cn[nH]c3)c3ccc(Cl)c(Cl)c3n2)CCO1 [I-328] |
| 2000 to 30000 nM | O=C1CCN(c2cc(-n3ccnc3)c3ccc(Cl)c(Cl)c3n2)CCN1 [I-88] |
| 2000 to 30000 nM | Brc1ccc2c(-n3ccnc3)cc(-c3ccccc3)nc2c1 [I-424, 7-bromo-4-(1H-imidazol-1-yl)-2-phenylquinoline] |
| 2000 to 30000 nM | COC(=O)C1CCN(c2cc(-n3ccnc3)c3ccc(Cl)cc3n2)CC1 [I-131] |
| < 2000 nM | O=[PH](O)OCCC1CCCN(c2cc(-c3cn[nH]c3)c3ccc(Cl)c(Cl)c3n2)C1 (stereo not drawn) [I-330] |
| < 2000 nM | CN(CCO[PH](=O)O)c1cc(-n2ccnc2)c2ccc(Cl)c(Cl)c2n1 [I-255] |
| < 2000 nM | NS(=O)(=O)N1CCOC(CNc2cc(-n3ccnc3)c3ccc(Cl)c(Cl)c3n2)C1 (stereo not drawn) [I-219, 2-(((7,8-dichloro-4-(1H-imidazol-1-yl)quinolin-2-yl)amino)methyl)morpholine-4-sulfonamide] |
| 2000 to 30000 nM | CC(C)(C)OC(=O)N1CCOC(CNc2cc(-c3cn[nH]c3)c3ccc(Cl)c(Cl)c3n2)C1 (stereo not drawn) [I-399] |
| < 2000 nM | C[C@@]1(CO)CCCN1c1cc(-n2ccnc2)c2ccc(Cl)c(Cl)c2n1 [I-143] |
| < 2000 nM | O=C(O)[C@@H]1CN(c2cc(-c3cn[nH]c3)c3ccc(Cl)c(Cl)c3n2)CCO1 [I-327] |
| 2000 to 30000 nM | C[C@@H](Nc1cc(-c2cn[nH]c2)c2ccc(Cl)c(Cl)c2n1)C(=O)O [I-180] |
| < 2000 nM | O=C(O)c1ccccc1S(=O)(=O)NC[C@@H]1CCCN1c1cc(-n2ccnc2)c2ccc(Cl)c(Cl)c2n1 [I-391] |
| < 2000 nM | O=C(O)C1CN(c2cc(-n3ccnc3)c3ccc(Cl)c(Cl)c3n2)CCC1O (stereo not drawn) [I-332] |
| 2000 to 30000 nM | O=C(O)C1CCN(c2cc(-n3ccnc3)c3ccc(Cl)cc3n2)C1 (stereo not drawn) [I-445] |
| 2000 to 30000 nM | C[C@@H](Nc1cc(-c2cn[nH]c2)nc2c(Cl)c(Cl)ccc12)C(=O)OC(C)(C)C [I-290] |

| IC50 | SMILES |
| --- | --- |
| 2000 to 30000 nM | O=C1NC(=O)C(CCCc2cc(-c3cn[nH]c3)c3ccc(Cl)c(Cl)c3n2)S1 (stereo not drawn) [I-272, 5-(3-(7,8-dichloro-4-(1H-pyrazol-4-yl)quinolin-2-yl)propyl)thiazolidine-2,4-dione] |
| 2000 to 30000 nM | COc1ccc(-c2cc(-n3ccnc3)c3ccc(Cl)cc3n2)cc1 [I-2, 7-chloro-4-(1H-imidazol-1-yl)-2-(4-methoxyphenyl)quinoline] |
| < 2000 nM | O=C(O)c1cc(C(=O)O)cc(-c2cc(-n3ccnc3)c3ccc(Cl)cc3n2)c1 [I-28] |
| 2000 to 30000 nM | O=C(O)c1cc(-c2cc(-n3ccnc3)c3ccc(Cl)cc3n2)c[nH]1 [I-56, 4-(7-chloro-4-(1H-imidazol-1-yl)quinolin-2-yl)-1H-pyrrole-2-carboxylic acid] |
| 2000 to 30000 nM | O=C(O)CNCCCc1cc(-c2cn[nH]c2)c2ccc(Cl)c(Cl)c2n1 [I-336, (3-(7,8-dichloro-4-(1H-pyrazol-4-yl)quinolin-2-yl)propyl)glycine] |
| 2000 to 30000 nM | Nc1cccc(-c2cc(-n3ccnc3)c3ccc(Cl)cc3n2)c1 [I-8, 3-(7-chloro-4-(1H-imidazol-1-yl)quinolin-2-yl)aniline] |
| < 2000 nM | O=C(O)c1cc(-c2cc(-n3ccnc3)c3ccc(Cl)cc3n2)cs1 [I-55] |
| 2000 to 30000 nM | O=C(O)c1cccc(COc2cc(-n3ccnc3)c3ccc(Cl)cc3n2)c1 [I-281] |
| < 2000 nM | CN(CCC(=O)O)c1cc(-n2ccnc2)c2ccc(Cl)c(Cl)c2n1 [I-183] |
| 2000 to 30000 nM | C[C@@H](CS(N)(=O)=O)Nc1cc(-n2ccnc2)c2ccc(Cl)c(Cl)c2n1 [I-206] |
| 2000 to 30000 nM | CC(C)N(CCN1CCOCC1)c1cc(-c2cn[nH]c2)c2ccc(Cl)c(Cl)c2n1 [I-358] |
| 2000 to 30000 nM | O=C(O)[C@@H]1C[C@@H](OCc2ccccc2)CN1c1cc(-c2cn[nH]c2)c2ccc(Cl)c(Cl)c2n1 [I-438] |
| < 2000 nM | O=C(CO)N[C@@H]1C[C@@H](C(=O)O)N(c2cc(-n3ccnc3)c3ccc(Cl)c(Cl)c3n2)C1 [I-346] |
| < 2000 nM | Clc1ccc2c(-c3cn[nH]c3)cc(N3CCOC(c4nnn[nH]4)C3)nc2c1Cl (stereo not drawn) [I-370] |
| < 2000 nM | CN(CCNS(C)(=O)=O)c1cc(-n2ccnc2)c2ccc(Cl)c(Cl)c2n1 [I-225] |
| 2000 to 30000 nM | OCC1CCCN(c2cc(-n3ccnc3)c3ccc(Cl)cc3n2)C1 (stereo not drawn) [I-140] |
| 2000 to 30000 nM | Clc1ccc2c(-n3ccnc3)cc(N3CCCCC3)nc2c1Cl [I-121] |
| 2000 to 30000 nM | O=S(=O)(O)CNc1cc(-n2ccnc2)c2ccc(Cl)c(Cl)c2n1 [I-157] |
| 2000 to 30000 nM | Brc1ccc2c(-n3ccnc3)cc(-c3cccs3)nc2c1 [I-380, 7-bromo-4-(1H-imidazol-1-yl)-2-(thiophen-2-yl)quinoline] |
| < 2000 nM | O=[PH](O)OCC1CCCN(c2cc(-c3cn[nH]c3)c3ccc(Cl)c(Cl)c3n2)C1 (stereo not drawn) [I-329] |
| < 2000 nM | CC(O)CN(C)c1cc(-n2ccnc2)c2ccc(Cl)c(Cl)c2n1 (stereo not drawn) [I-243] |

same assay, conditions: Table 3, read-out: cGAS Inhibition Results IC50

| IC50 | SMILES |
| --- | --- |
| < 2000 nM | O=C(O)CNC(=O)O[C@@H]1C[C@@H](C(=O)O)N(c2cc(-n3ccnc3)c3ccc(Cl)c(Cl)c3n2)C1 [I-607] |
| > 30000 nM | Cn1cc(-c2cc(N3CCC[C@H]3COCCC(=O)O)nc3c(Cl)c(Cl)ccc23)cn1 [I-826] |
| < 2000 nM | CN(CCC(=O)N1CCC(S(N)(=O)=O)C1)c1cc(-n2ccnc2)c2ccc(Cl)c(Cl)c2n1 (stereo not drawn) [I-566] |
| < 2000 nM | OC1CC2CCC(C1)N2c1cc(-n2ccnc2)c2ccc(Cl)c(Cl)c2n1 (stereo not drawn) [I-489] |
| < 2000 nM | NC(=O)C[C@@H]1CCCN1c1cc(-n2ccnc2)c2ccc(Cl)c(Cl)c2n1 [I-603] |
| < 2000 nM | Clc1ccc2c(-n3ccnc3)cc(N3CCC[C@H]3c3nn[nH]n3)nc2c1Cl [I-465] |
| > 30000 nM | O=c1nc([C@@H]2CCCN2c2cc(-n3ccnc3)c3ccc(Cl)c(Cl)c3n2)o[nH]1 [I-605, (S)-5-(1-(7,8-dichloro-4-(1H-imidazol-1-yl)quinolin-2-yl)pyrrolidin-2-yl)-1,2,4-oxadiazol-3(2H)-one] |
| < 2000 nM | O=C(O)C1CN(C(=O)C[C@@H]2CCCN2c2cc(-n3ccnc3)c3ccc(Cl)c(Cl)c3n2)CCO1 (stereo partly drawn) [I-538] |
| > 30000 nM | OC([C@@H]1CCCN1c1cc(-n2ccnc2)c2ccc(Cl)c(Cl)c2n1)(C(F)(F)F)C(F)(F)F [I-656, (S)-2-(1-(7,8-dichloro-4-(1H-imidazol-1-yl)quinolin-2-yl)pyrrolidin-2-yl)-1,1,1,3,3,3-hexafluoropropan-2-ol] |
| 2000 to 30000 nM | COC(=O)[C@@H]1C[C@H](O)CN1c1cc(-n2ccnc2)c2ccc(Cl)c(Cl)c2n1 [I-459] |
| 2000 to 30000 nM | COC(=O)[C@@H]1C[C@H](OCCC(=O)O)CN1c1cc(-n2ccnc2)c2ccc(Cl)c(Cl)c2n1 [I-871] |
| 2000 to 30000 nM | COC(=O)[C@@H]1[C@@H](C)CCN1c1cc(-n2ccnc2)c2ccc(Cl)c(Cl)c2n1 [I-590] |
| 2000 to 30000 nM | COC(=O)[C@@H]1[C@@H](OCCC(=O)O)CCN1c1cc(-n2ccnc2)c2ccc(Cl)c(Cl)c2n1 [I-870] |
| < 2000 nM | CN(CCS(=O)(=O)N1CCCC1C(=O)O)c1cc(-n2ccnc2)c2ccc(Cl)c(Cl)c2n1 (stereo not drawn) [I-626] |
| < 2000 nM | O=C(O)C1CC2CCC1N2c1cc(-n2ccnc2)c2ccc(Cl)c(Cl)c2n1 (stereo not drawn) [I-494] |
| 2000 to 30000 nM | CN(CCC(=O)O)C[C@@H]1CCCN1c1cc(-n2ccnc2)c2ccc(Cl)c(Cl)c2n1 [I-754, (S)-3-(((1-(7,8-dichloro-4-(1H-imidazol-1-yl)quinolin-2-yl)pyrrolidin-2-yl)methyl)(methyl)amino)propanoic acid] |
| < 2000 nM | O=C(O)C1CC2CCC(C1)N2c1cc(-n2ccnc2)c2ccc(Cl)c(Cl)c2n1 (stereo not drawn) [I-493] |
